In US20260372303A1, “5-Fluoro-4-Imino-3-Methyl-1-Tosyl-3, 4-Dihydropyrimidin-2(1H) -One for Fungicide-Resistant Fungus” (priority 2022, published 2026):

Columns and labels:
Format in all cases: in vivo
[1] = system: Zymoseptoria tritici strain Zt 20; assay: In planta preventive efficacy on wheat cv. Alixan against Zymoseptoria tritici strain Zt 20; conditions: % of length of 2nd leaf blade, preventive 24 h
Description: (§1) A series of experiments were conducted to evaluate the efficacy of flumetylsulforim (ADF-16) for treating different strains of Zymoseptoria tritici in comparison with commercially available fungicides. Table 1 describes the Z. tritici strains used in this study and Table 2 describes the fungicides used in this study.
(§2) Winter wheat plants cv. Alixan (Limagrain) at the BBCH 12 growth stage were treated preventively with sterile distilled water (control), ADF-16, penthiopyrad, metconazole or tebuconazole at the rates described in Table 2 with a hand sprayer at 2 bars.
(§3) After treatment, wheat plants were left to dry at room temperature for 1 hour and then placed in a climatic chamber: temperature of 24 °C day/18 °C night-photoperiod of 16 h light/8 h dark and a relative humidity of 65%.
(§4) Untreated or treated whole wheat plants were inoculated 24-hours post-treatment with a calibrated pycnospore suspension of Z. tritici strains Zt StA, Zt 61, Zt 99, Zt 20, Zt 19-52, and Zt 38-02. Three replicates (pots) of 6 wheat plants each were used for each condition tested.
(§5) After inoculation, pots were transferred in a climatic chamber: temperature of 20 °C day/17 °C night—photoperiod of 16 h light/8 h dark and controlled relative humidity.
(§6) Disease assessments were carried out at 15 days post inoculation (dpi), 21 dpi and 28 dpi by measuring the length of the necrosis on the second leaf blade. The intensity of infection was then determined as a percentage of the total length of 2nd leaf blade.
(§7) The fungicide efficacies were determined from the Area Under the Disease Progress Curve (AUDPC) values and expressed as a percentage of the untreated control.
(§8) The AUDPC is a quantitative measure of disease intensity over time. The most commonly used method for estimating the AUDPC, the trapezoidal method, is performed by multiplying the average disease intensity between each pair of adjacent timepoints by the corresponding time interval and this for each time interval. The AUDPC is determined with the following formula by adding all of the trapezoids:
(§9) [formula] • yi=disease severity at the ith observation • ti=time (days) at the ith observation • N=total number of observations

[2] = system: Zymoseptoria tritici strain Zt 61; assay: In planta preventive efficacy on wheat cv. Alixan against Zymoseptoria tritici strain Zt 61; design: fungicide efficacy: concentration or dose not given beside the values; conditions: for Disease Severity Intensity: % of length of 2nd leaf blade, preventive 24 h; for AUDPC: control 1194.9
Description: as §1, §2, §3, §4, §5, §6, §7, §8, §9

[3] = system: Zymoseptoria tritici strain Zt 99; assay: In planta preventive efficacy on wheat cv. Alixan against Zymoseptoria tritici strain Zt 99; conditions: for Disease Severity Intensity: % of length of 2nd leaf blade, preventive 24 h; for AUDPC: control 1352.9
Description: as §1, §2, §3, §4, §5, §6, §7, §8, §9

[4] = system: Zymoseptoria tritici strain Zt 38-02; assay: In planta preventive efficacy on wheat cv. Alixan against Zymoseptoria tritici strain Zt 38-02; conditions: for Disease Severity Intensity: % of length of 2nd leaf blade, preventive 24 h; for AUDPC: control 1261.4
Description: as §1, §2, §3, §4, §5, §6, §7, §8, §9

[5] = system: Zymoseptoria tritici strain Zt 19-52; assay: In planta preventive efficacy on wheat cv. Alixan against Zymoseptoria tritici strain Zt 19-52; conditions: % of length of 2nd leaf blade, preventive 24 h
Description: as §1, §2, §3, §4, §5, §6, §7, §8, §9

[6] = system: Zymoseptoria tritici strain Zt StA; assay: In planta preventive efficacy on wheat cv. Alixan against Zymoseptoria tritici strain Zt StA (control strain, sensitive); conditions: for Disease Severity Intensity: % of length of 2nd leaf blade, preventive 24 h; for AUDPC: control 781.6
Description: as §1, §2, §3, §4, §5, §6, §7, §8, §9

[7] = 15 dpi, rate N (g a.i./ha): ADF-16 100, penthiopyrad 200, metconazole 90, tebuconazole 250, control also no disease
[8] = 15 dpi, rate N/2.5 (g a.i./ha): ADF-16 40, penthiopyrad 80, metconazole 36, tebuconazole 100, control also no disease
[9] = rate N (g a.i./ha): ADF-16 100, penthiopyrad 200, metconazole 90, tebuconazole 250
[10] = rate N/2.5 (g a.i./ha): ADF-16 40, penthiopyrad 80, metconazole 36, tebuconazole 100

CC(C)CC(C)c1sccc1NC(=O)c1cn(C)nc1C(F)(F)F (stereo not drawn) [Penthiopyrad]
Disease Severity Intensity [1, 7]: No disease
Disease Severity Intensity [1, 8]: No disease
Disease Severity Intensity ([1]; 21 dpi, rate N (g a.i./ha): ADF-16 100, penthiopyrad 200, metconazole 90, tebuconazole 250, control 77.2): 0.3 +/− 0.3e %
Disease Severity Intensity ([1]; 21 dpi, rate N/2.5 (g a.i./ha): ADF-16 40, penthiopyrad 80, metconazole 36, tebuconazole 100, control 77.2): 0.0 +/− 0.0e %
Disease Severity Intensity ([1]; 28 dpi, rate N (g a.i./ha): ADF-16 100, penthiopyrad 200, metconazole 90, tebuconazole 250, control 95.5): 1.2 +/− 0.6g %
Disease Severity Intensity ([1]; 28 dpi, rate N/2.5 (g a.i./ha): ADF-16 40, penthiopyrad 80, metconazole 36, tebuconazole 100, control 95.5): 2.0 +/− 1.4g %
Disease Severity Intensity [2, 7]: No disease
Disease Severity Intensity [2, 8]: No disease
Disease Severity Intensity ([2]; 21 dpi, rate N (g a.i./ha): ADF-16 100, penthiopyrad 200, metconazole 90, tebuconazole 250, control 63.3): 1.2 +/− 0.5d %
Disease Severity Intensity ([2]; 21 dpi, rate N/2.5 (g a.i./ha): ADF-16 40, penthiopyrad 80, metconazole 36, tebuconazole 100, control 63.3): 19.9 +/− 3.8b %
Disease Severity Intensity ([2]; 28 dpi, rate N (g a.i./ha): ADF-16 100, penthiopyrad 200, metconazole 90, tebuconazole 250, control 88.1): 18.2 +/− 2.8e %
Disease Severity Intensity ([2]; 28 dpi, rate N/2.5 (g a.i./ha): ADF-16 40, penthiopyrad 80, metconazole 36, tebuconazole 100, control 88.1): 74.3 +/− 2.3b %
fungicide efficacy ([2]; higher application rates (N)): ≥ 85%
fungicide efficacy ([2]; lower application rates (N/2.5)): ≤ 70%
Efficacy (from AUDPC, percentage of the untreated control) [2, 9]: 93.3%
AUDPC [2, 9]: 80.2 ± 9.8 days
Efficacy (from AUDPC, percentage of the untreated control) [2, 10]: 55.0%
AUDPC [2, 10]: 537.9 +/− 53.2b
Disease Severity Intensity ([3]; 15 dpi, rate N (g a.i./ha): ADF-16 100, penthiopyrad 200, metconazole 90, tebuconazole 250, control 47.9): 12.9 +/− 2.1c %
Disease Severity Intensity ([3]; 15 dpi, rate N/2.5 (g a.i./ha): ADF-16 40, penthiopyrad 80, metconazole 36, tebuconazole 100, control 47.9): 27.5 +/− 2.2b %
Disease Severity Intensity ([3]; 21 dpi, rate N (g a.i./ha): ADF-16 100, penthiopyrad 200, metconazole 90, tebuconazole 250, control 81.0): 70.2 +/− 2.8b %
Disease Severity Intensity ([3]; 21 dpi, rate N/2.5 (g a.i./ha): ADF-16 40, penthiopyrad 80, metconazole 36, tebuconazole 100, control 81.0): 72.0 +/− 3.6b %
Disease Severity Intensity ([3]; 28 dpi, rate N (g a.i./ha): ADF-16 100, penthiopyrad 200, metconazole 90, tebuconazole 250, control 92.2): 90.6 +/− 1.7ab %
Disease Severity Intensity ([3]; 28 dpi, rate N/2.5 (g a.i./ha): ADF-16 40, penthiopyrad 80, metconazole 36, tebuconazole 100, control 92.2): 90.9 +/− 1.6ab %
Efficacy (from AUDPC, percentage of the untreated control) [3, 9]: 32.9%
AUDPC [3, 9]: 908.4 +/− 11.3c
Efficacy (from AUDPC, percentage of the untreated control) [3, 10]: 20.4%
AUDPC [3, 10]: 1076.9 +/− 17.9b
Disease Severity Intensity ([4]; 15 dpi, rate N (g a.i./ha): ADF-16 100, penthiopyrad 200, metconazole 90, tebuconazole 250, control 36.0): 0.0 +/− 0.0b %
Disease Severity Intensity ([4]; 15 dpi, rate N/2.5 (g a.i./ha): ADF-16 40, penthiopyrad 80, metconazole 36, tebuconazole 100, control 36.0): 0.0 +/− 0.0b %
Disease Severity Intensity ([4]; 21 dpi, rate N (g a.i./ha): ADF-16 100, penthiopyrad 200, metconazole 90, tebuconazole 250, control 84.3): 10.9 +/− 2.1e %
Disease Severity Intensity ([4]; 21 dpi, rate N/2.5 (g a.i./ha): ADF-16 40, penthiopyrad 80, metconazole 36, tebuconazole 100, control 84.3): 70.7 +/− 3.3b %
Disease Severity Intensity ([4]; 28 dpi, rate N (g a.i./ha): ADF-16 100, penthiopyrad 200, metconazole 90, tebuconazole 250, control 95.7): 54.9 +/− 3.2d %
Disease Severity Intensity ([4]; 28 dpi, rate N/2.5 (g a.i./ha): ADF-16 40, penthiopyrad 80, metconazole 36, tebuconazole 100, control 95.7): 86.5 +/− 2.1c %
Efficacy (from AUDPC, percentage of the untreated control) [4, 9]: 79.2%
AUDPC [4, 9]: 262.9 ± 12.5 days
Efficacy (from AUDPC, percentage of the untreated control) [4, 10]: 39.5%
AUDPC [4, 10]: 763.1 +/− 4.4b
Disease Severity Intensity ([5]; 15 dpi, rate N (g a.i./ha): ADF-16 100, penthiopyrad 200, metconazole 90, tebuconazole 250, control 22.0): 0.0 +/− 0.0b %
Disease Severity Intensity ([5]; 15 dpi, rate N/2.5 (g a.i./ha): ADF-16 40, penthiopyrad 80, metconazole 36, tebuconazole 100, control 22.0): 0.0 +/− 0.0b %
Disease Severity Intensity ([5]; 21 dpi, rate N (g a.i./ha): ADF-16 100, penthiopyrad 200, metconazole 90, tebuconazole 250, control 81.7): 0.0 +/− 0.0c %
Disease Severity Intensity ([5]; 21 dpi, rate N/2.5 (g a.i./ha): ADF-16 40, penthiopyrad 80, metconazole 36, tebuconazole 100, control 81.7): 0.0 +/− 0.0c %
Disease Severity Intensity ([5]; 28 dpi, rate N (g a.i./ha): ADF-16 100, penthiopyrad 200, metconazole 90, tebuconazole 250, control 91.0): 0.0 +/− 0.0f %
Disease Severity Intensity ([5]; 28 dpi, rate N/2.5 (g a.i./ha): ADF-16 40, penthiopyrad 80, metconazole 36, tebuconazole 100, control 91.0): 2.0 +/− 0.8e %
Disease Severity Intensity [6, 7]: No disease
Disease Severity Intensity [6, 8]: No disease
Disease Severity Intensity ([6]; 21 dpi, rate N (g a.i./ha): ADF-16 100, penthiopyrad 200, metconazole 90, tebuconazole 250, control 36.5): 0.0 +/− 0.0b %
Disease Severity Intensity ([6]; 21 dpi, rate N/2.5 (g a.i./ha): ADF-16 40, penthiopyrad 80, metconazole 36, tebuconazole 100, control 36.5): 0.0 +/− 0.0b %
Disease Severity Intensity ([6]; 28 dpi, rate N (g a.i./ha): ADF-16 100, penthiopyrad 200, metconazole 90, tebuconazole 250, control 77.4): 0.0 +/− 0.0b %
Disease Severity Intensity ([6]; 28 dpi, rate N/2.5 (g a.i./ha): ADF-16 40, penthiopyrad 80, metconazole 36, tebuconazole 100, control 77.4): 0.0 +/− 0.0b %
Efficacy (from AUDPC, percentage of the untreated control) [6, 9]: 100%
AUDPC [6, 9]: 0.0 +/− 0.0b
Efficacy (from AUDPC, percentage of the untreated control) [6, 10]: 100%
AUDPC [6, 10]: 0.0 +/− 0.0b
